Measured values reported in PubChem BioAssay (NCI).
“And” between values parts separate entries of the source, which are not always exact repeats. Equal values may be shown once.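 Grown in 96-well plates, cells were treated for 48 hours with each compound at five concentrations. Insufficient inhibition: endpoint recorded as highest concentration tested. The concentration for 50% growth inhibition is given as GI50. TGI: total growth inhibition.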

How the values were obtained:
Assay in all cases: NCI-60 cell line screen, 48 h
786-0 renal = tested on: 786-0 renal
A498 renal = tested on: A498 renal
BT-549 breast = tested on: BT-549 breast
CCRF-CEM leukemia = tested on: CCRF-CEM leukemia
COLO 205 colon = tested on: COLO 205 colon
DU-145 prostate = tested on: DU-145 prostate
HCT-116 colon = tested on: HCT-116 colon
HCT-15 colon = tested on: HCT-15 colon
HL-60(TB) leukemia = tested on: HL-60(TB) leukemia
HOP-92 NSCLC = tested on: HOP-92 NSCLC
IGROV1 ovarian = tested on: IGROV1 ovarian
LOX IMVI melanoma = tested on: LOX IMVI melanoma
M14 melanoma = tested on: M14 melanoma
MDA-MB-231 breast = tested on: MDA-MB-231 breast
MDA-MB-435 = tested on: MDA-MB-435
MOLT-4 leukemia = tested on: MOLT-4 leukemia
NCI-H226 lung = tested on: NCI-H226 lung
NCI-H23 lung = tested on: NCI-H23 lung
NCI-H522 lung = tested on: NCI-H522 lung
OVCAR-4 ovarian = tested on: OVCAR-4 ovarian
OVCAR-8 ovarian = tested on: OVCAR-8 ovarian
PC-3 prostate = tested on: PC-3 prostate
RPMI-8226 leukemia = tested on: RPMI-8226 leukemia
SK-MEL-28 melanoma = tested on: SK-MEL-28 melanoma
SK-MEL-5 melanoma = tested on: SK-MEL-5 melanoma
SK-OV-3 ovarian = tested on: SK-OV-3 ovarian
SN12C renal = tested on: SN12C renal
SNB-19 CNS = tested on: SNB-19 CNS
SNB-75 CNS = tested on: SNB-75 CNS
SR leukemia = tested on: SR leukemia
A549 NSCLC = tested on: A549 NSCLC
ACHN renal = tested on: ACHN renal
CAKI-1 renal = tested on: CAKI-1 renal
EKVX NSCLC = tested on: EKVX NSCLC
HCC-2998 colon = tested on: HCC-2998 colon
HOP-62 NSCLC = tested on: HOP-62 NSCLC
K-562 leukemia = tested on: K-562 leukemia
KM12 colon = tested on: KM12 colon
MCF7 breast = tested on: MCF7 breast
NCI-H460 lung = tested on: NCI-H460 lung
NCI/ADR-RES ovarian = tested on: NCI/ADR-RES ovarian
OVCAR-3 ovarian = tested on: OVCAR-3 ovarian
OVCAR-5 ovarian = tested on: OVCAR-5 ovarian
RXF 393 renal = tested on: RXF 393 renal
SF-268 CNS = tested on: SF-268 CNS
SF-295 CNS = tested on: SF-295 CNS
SK-MEL-2 melanoma = tested on: SK-MEL-2 melanoma
SW-620 colon = tested on: SW-620 colon
T-47D breast = tested on: T-47D breast
TK-10 renal = tested on: TK-10 renal
U251 CNS = tested on: U251 CNS
UACC-257 melanoma = tested on: UACC-257 melanoma
UACC-62 melanoma = tested on: UACC-62 melanoma
UO-31 renal = tested on: UO-31 renal

Nc1ncnc2c1ncn2C1OC(COS(N)(=O)=O)C(O)C1O (configuration not stated)
GI50 (786-0 renal): 2.13 nM and 20.4 nM | TGI (786-0 renal): 4.65 nM and 43.3 nM | GI50 (A498 renal): 16.4 nM | TGI (A498 renal): 34.4 nM | GI50 (BT-549 breast): 2.66 nM and 26.6 nM | TGI (CCRF-CEM leukemia): 173 nM | GI50 (COLO 205 colon): 2.39 nM and 21.9 nM | TGI (COLO 205 colon): 5.08 nM and 43.2 nM | GI50 (DU-145 prostate): < 1 nM | GI50 (HCT-116 colon): 2.52 nM and 24.8 nM | TGI (HCT-116 colon): 15.6 nM and 65.6 nM | GI50 (HCT-15 colon): 2.55 nM | TGI (HCT-15 colon): 7.1 nM | GI50 (HL-60(TB) leukemia): < 1 nM | TGI (HL-60(TB) leukemia): 3.78 nM | TGI (HOP-92 NSCLC): 6.19 nM and 61.1 nM | GI50 (IGROV1 ovarian): 2.91 nM and 24.8 nM | TGI (IGROV1 ovarian): 7.81 nM and 65 nM | GI50 (LOX IMVI melanoma): 18 nM | TGI (LOX IMVI melanoma): 38.2 nM | GI50 (M14 melanoma): 2.14 nM and 18.1 nM | TGI (M14 melanoma): 4.94 nM and 36 nM | GI50 (MDA-MB-231 breast): < 1 nM | GI50 (MDA-MB-435): 1.84 nM and 18 nM | TGI (MDA-MB-435): 3.56 nM and 35.5 nM | GI50 (MOLT-4 leukemia): 21.9 nM | TGI (MOLT-4 leukemia): 109 nM | GI50 (NCI-H226 lung): 2.03 nM | TGI (NCI-H226 lung): 3.98 nM | TGI (NCI-H23 lung): 5.58 nM and 54.6 nM | TGI (NCI-H522 lung): 14.8 nM | GI50 (OVCAR-4 ovarian): 1.18 nM | TGI (OVCAR-4 ovarian): 7.18 nM and 35.7 nM | GI50 (OVCAR-8 ovarian): < 1 nM | TGI (OVCAR-8 ovarian): 3.94 nM | GI50 (PC-3 prostate): 24.3 nM | TGI (PC-3 prostate): 58.7 nM | GI50 (RPMI-8226 leukemia): 2.87 nM and 28.3 nM | TGI (RPMI-8226 leukemia): 265 nM and 66.1 nM | GI50 (SK-MEL-28 melanoma): 2.25 nM and 22.1 nM | TGI (SK-MEL-28 melanoma): 5.21 nM and 50.9 nM | GI50 (SK-MEL-5 melanoma): 1.77 nM and 17.5 nM | TGI (SK-MEL-5 melanoma): 3.36 nM and 32.1 nM | TGI (SK-OV-3 ovarian): 7.84 nM and 75.8 nM | GI50 (SN12C renal): < 1 nM | GI50 (SNB-19 CNS): < 1 nM | GI50 (SNB-75 CNS): 2.55 nM and 19.4 nM | TGI (SNB-75 CNS): 8.3 nM and 56.5 nM | GI50 (SR leukemia): < 1 nM | TGI (SR leukemia): 13.6 nM

CN(C)C1(N(C)C)Oc2c(c(=O)n(C)c(=O)n2C)C(c2ccc(C(F)(F)F)cc2)C1(F)F (configuration not stated)
TGI (786-0 renal): > 100000 nM | TGI (A498 renal): > 100000 nM | TGI (A549 NSCLC): > 100 µM | TGI (ACHN renal): > 100 µM | TGI (BT-549 breast): > 100 µM | TGI (CAKI-1 renal): > 100 µM | TGI (CCRF-CEM leukemia): > 100000 nM | TGI (COLO 205 colon): > 100000 nM | TGI (DU-145 prostate): > 100 µM | TGI (EKVX NSCLC): > 100 µM | TGI (HCC-2998 colon): > 100 µM | TGI (HCT-116 colon): > 100000 nM | TGI (HCT-15 colon): > 100000 nM | TGI (HOP-62 NSCLC): > 100 µM | TGI (HOP-92 NSCLC): > 100000 nM | TGI (K-562 leukemia): > 100 µM | TGI (KM12 colon): > 100 µM | TGI (LOX IMVI melanoma): > 100000 nM | TGI (M14 melanoma): > 100000 nM | TGI (MCF7 breast): > 100 µM | TGI (MDA-MB-231 breast): > 100 µM | TGI (MDA-MB-435): > 100000 nM | TGI (NCI-H226 lung): > 100000 nM | TGI (NCI-H23 lung): > 100000 nM | TGI (NCI-H460 lung): > 100 µM | TGI (NCI/ADR-RES ovarian): > 100 µM | TGI (OVCAR-3 ovarian): > 100 µM | TGI (OVCAR-4 ovarian): > 100000 nM | TGI (OVCAR-5 ovarian): > 100 µM | TGI (PC-3 prostate): > 100000 nM | TGI (RPMI-8226 leukemia): > 100000 nM | TGI (RXF 393 renal): > 100 µM | TGI (SF-268 CNS): > 100 µM | TGI (SF-295 CNS): > 100 µM | TGI (SK-MEL-2 melanoma): > 100 µM | TGI (SK-MEL-28 melanoma): > 100000 nM | TGI (SK-MEL-5 melanoma): > 100000 nM | TGI (SK-OV-3 ovarian): > 100000 nM | TGI (SNB-19 CNS): > 100 µM | TGI (SNB-75 CNS): > 100000 nM | TGI (SW-620 colon): > 100 µM | TGI (T-47D breast): > 100 µM | TGI (TK-10 renal): > 100 µM | TGI (U251 CNS): > 100 µM | TGI (UACC-257 melanoma): > 100 µM | TGI (UACC-62 melanoma): > 100 µM | TGI (UO-31 renal): > 100 µM
